Source: PMC8842743 (Journal of Alzheimer's Disease Reports, 2022)

System: healthy subjects
Assay: Clinical liver safety laboratory data over time
Assay type: in vivo, human
Conditions: mean (SD)

SMILES: COc1cnc(C(=O)Nc2ccc(F)c([C@]34CN(c5ncc(F)cn5)C[C@H]3CSC(N)=N4)c2)cn1 [LY3202626]
- ALP (1 mg daily, Day 1 predose): 62.8 (7.6) U/L
- ALT (1 mg daily, Day 1 predose): 19.0 (11.8) U/L
- AST (1 mg daily, Day 1 predose): 18.4 (6.7) U/L
- Albumin (1 mg daily, Day 1 predose): 43.9 (1.5) g/L
- GGT (1 mg daily, Day 1 predose): 22.3 (14.8) U/L
- Total Bilirubin (1 mg daily, Day 1 predose): 10.7 (2.8) umol/L
- ALP (1 mg daily, Day 2): 62.2 (8.7) U/L
- ALT (1 mg daily, Day 2): 18.9 (11.8) U/L
- AST (1 mg daily, Day 2): 18.4 (6.5) U/L
- Albumin (1 mg daily, Day 2): 43.8 (3.0) g/L
- GGT (1 mg daily, Day 2): 21.8 (15.6) U/L
- Total Bilirubin (1 mg daily, Day 2): 10.7 (2.6) umol/L
- ALP (1 mg daily, Day 3): 62.3 (8.4) U/L
- ALT (1 mg daily, Day 3): 18.7 (10.6) U/L
- AST (1 mg daily, Day 3): 16.1 (4.7) U/L
- Albumin (1 mg daily, Day 3): 43.1 (2.4) g/L
- GGT (1 mg daily, Day 3): 20.9 (13.9) U/L
- Total Bilirubin (1 mg daily, Day 3): 8.9 (2.3) umol/L
- ALP (1 mg daily, Day 4): 64.7 (10.7) U/L
- ALT (1 mg daily, Day 4): 20.4 (10.1) U/L
- AST (1 mg daily, Day 4): 19.6 (5.5) U/L
- Albumin (1 mg daily, Day 4): 44.0 (2.4) g/L
- GGT (1 mg daily, Day 4): 21.4 (14.5) U/L
- Total Bilirubin (1 mg daily, Day 4): 7.4 (4.2) umol/L
- ALP (1 mg daily, Day 6): 61.0 (10.9) U/L
- ALT (1 mg daily, Day 6): 18.9 (7.0) U/L
- AST (1 mg daily, Day 6): 17.7 (4.8) U/L
- Albumin (1 mg daily, Day 6): 43.1 (2.4) g/L
- GGT (1 mg daily, Day 6): 19.4 (11.8) U/L
- Total Bilirubin (1 mg daily, Day 6): 8.5 (4.5) umol/L
- ALP (1 mg daily, Day 8): 62.4 (11.3) U/L
- ALT (1 mg daily, Day 8): 20.8 (8.4) U/L
- AST (1 mg daily, Day 8): 21.3 (13.2) U/L
- Albumin (1 mg daily, Day 8): 44.1 (2.0) g/L
- GGT (1 mg daily, Day 8): 18.8 (11.5) U/L
- Total Bilirubin (1 mg daily, Day 8): 7.9 (5.0) umol/L
- ALP (1 mg daily, Day 10): 62.6 (10.0) U/L
- ALT (1 mg daily, Day 10): 24.6 (19.6) U/L
- AST (1 mg daily, Day 10): 30.2 (39.0) U/L
- Albumin (1 mg daily, Day 10): 43.3 (2.2) g/L
- GGT (1 mg daily, Day 10): 18.7 (11.3) U/L
- Total Bilirubin (1 mg daily, Day 10): 7.2 (2.1) umol/L
- ALP (1 mg daily, Day 12): 62.1 (9.7) U/L
- ALT (1 mg daily, Day 12): 24.2 (21.2) U/L
- AST (1 mg daily, Day 12): 26.2 (29.7) U/L
- Albumin (1 mg daily, Day 12): 43.2 (1.5) g/L
- GGT (1 mg daily, Day 12): 18.0 (9.9) U/L
- Total Bilirubin (1 mg daily, Day 12): 8.0 (2.8) umol/L
- ALP (1 mg daily, Day 14): 61.3 (10.6) U/L
- ALT (1 mg daily, Day 14): 22.8 (17.2) U/L
- AST (1 mg daily, Day 14): 20.2 (13.1) U/L
- Albumin (1 mg daily, Day 14): 43.6 (2.6) g/L
- GGT (1 mg daily, Day 14): 18.0 (10.1) U/L
- Total Bilirubin (1 mg daily, Day 14): 9.1 (2.7) umol/L
- ALP (1 mg daily, Day 15): 59.6 (9.6) U/L
- ALT (1 mg daily, Day 15): 20.8 (15.5) U/L
- AST (1 mg daily, Day 15): 18.3 (9.7) U/L
- Albumin (1 mg daily, Day 15): 42.6 (2.2) g/L
- GGT (1 mg daily, Day 15): 18.2 (11.0) U/L
- Total Bilirubin (1 mg daily, Day 15): 9.2 (2.5) umol/L
- ALP (1 mg daily, Day 17): 63.9 (10.6) U/L
- ALT (1 mg daily, Day 17): 23.2 (12.8) U/L
- AST (1 mg daily, Day 17): 19.3 (6.0) U/L
- Albumin (1 mg daily, Day 17): 46.0 (2.8) g/L
- GGT (1 mg daily, Day 17): 20.1 (11.8) U/L
- Total Bilirubin (1 mg daily, Day 17): 8.2 (4.0) umol/L
- ALP (6 mg daily, Day 1 predose): 64.6 (16.9) U/L
- ALT (6 mg daily, Day 1 predose): 17.6 (5.5) U/L
- AST (6 mg daily, Day 1 predose): 18.9 (4.0) U/L
- Albumin (6 mg daily, Day 1 predose): 45.0 (1.7) g/L
- GGT (6 mg daily, Day 1 predose): 21.6 (10.7) U/L
- Total Bilirubin (6 mg daily, Day 1 predose): 8.9 (3.6) umol/L
- ALP (6 mg daily, Day 2): 66.4 (20.2) U/L
- ALT (6 mg daily, Day 2): 17.8 (3.8) U/L
- AST (6 mg daily, Day 2): 18.0 (3.0) U/L
- Albumin (6 mg daily, Day 2): 45.8 (2.5) g/L
- GGT (6 mg daily, Day 2): 21.7 (9.5) U/L
- Total Bilirubin (6 mg daily, Day 2): 9.8 (4.5) umol/L
- ALP (6 mg daily, Day 3): 65.8 (18.6) U/L
- ALT (6 mg daily, Day 3): 18.9 (4.7) U/L
- AST (6 mg daily, Day 3): 17.8 (2.9) U/L
- Albumin (6 mg daily, Day 3): 46.3 (2.1) g/L
- GGT (6 mg daily, Day 3): 22.3 (11.2) U/L
- Total Bilirubin (6 mg daily, Day 3): 7.4 (3.1) umol/L
- ALP (6 mg daily, Day 4): 67.8 (18.4) U/L
- ALT (6 mg daily, Day 4): 20.9 (5.2) U/L
- AST (6 mg daily, Day 4): 19.8 (4.7) U/L
- Albumin (6 mg daily, Day 4): 47.0 (1.9) g/L
- GGT (6 mg daily, Day 4): 24.0 (11.0) U/L
- Total Bilirubin (6 mg daily, Day 4): 6.9 (2.4) umol/L
- ALP (6 mg daily, Day 6): 63.9 (17.8) U/L
- ALT (6 mg daily, Day 6): 18.9 (4.4) U/L
- AST (6 mg daily, Day 6): 19.7 (4.9) U/L
- Albumin (6 mg daily, Day 6): 45.3 (2.7) g/L
- GGT (6 mg daily, Day 6): 22.0 (10.8) U/L
- Total Bilirubin (6 mg daily, Day 6): 8.4 (4.0) umol/L
- ALP (6 mg daily, Day 8): 64.6 (17.6) U/L
- ALT (6 mg daily, Day 8): 18.6 (2.5) U/L
- AST (6 mg daily, Day 8): 20.8 (6.2) U/L
